From PubChem BioAssay (NCI)
Where “and” joins values, the source holds several entries; their conditions need not be identical. Identical values can stand only once.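 Assay format: 96-well plates, 48-hour exposure. Here, GI50 denotes the concentration required for 50% inhibition of growth. TGI is the concentration that stops growth completely.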

System: MDA-MB-468 breast
Assay: NCI anticancer screen, dose series, 48 h

Structure (SMILES) | GI50 [µM] | TGI
O=C(O)CCCN1C(=O)/C(=C/C(Cl)=C/c2ccccc2)SC1=S | 1.18 | 3.29 µM
Cc1cccc(N2CCN(C3=C(Cl)C(=O)c4ncccc4C3=O)CC2)c1 | 1.54 | 3.08 µM
COc1ccc(Cn2cc3c(c2-c2ccccc2)CCc2cnoc2-3)cc1 | 0.0795 | > 100 µM
CCc1nc(N)nc(N)c1C#CC(C)c1ccc(-c2ccncc2)cc1Cl (stereo not drawn) |  | 1.57 µM and 6.46 µM
Nc1[nH]nc(Nc2ccccc2)c1-c1nc2ccccc2s1 | 2.23 | 5.98 µM
CN1CCN(C2=C(Cl)C(=O)c3ccccc3C2=O)CC1 | 1.11 | 2.61 µM
CC(=O)CC[N+](C)(C)C | 1.75 | 4.39 µM
O=[N+]([O-])c1ccccc1/C=N\NC(=S)N/N=C/c1ccccc1[N+](=O)[O-] | 1.4 | 21.3 µM
CCN(Cc1ccc(Cl)c(Cl)c1)c1ccc2nc(N)nc(N)c2c1C | 0.0138 | 1.3 µM
NC(CSC(c1ccccc1)(c1ccccc1)c1ccccc1)C(=O)O (stereo not drawn) | 0.406 | 6.24 µM
COc1ccc(-c2nc(NC(=O)CS(=O)(=O)c3ccc(F)cc3)sc2C)cc1 | 7.05 | 53.8 µM
COc1ccc(CCN2CCCn3c2nc2ccccc2c3=O)cc1 | 0.0392 | 43.9 µM
CN[C@@H](C)C(=O)N[C@H](C(=O)N1CCC[C@H]1c1nc(C(=O)c2ccc(F)cc2)cs1)C1CCCCC1 | 0.591 | 20.3 µM
CN(C)Cc1ccc(NC(=O)c2cncc(C#Cc3cnc(N)c4ncccc34)c2)cc1C(F)(F)F | 1.56 | 3.21 µM
CCN1C(=O)N(CC)C2C1NN=c1s/c(=C3\C(=O)Nc4ccccc43)c(=O)n12 (stereo not drawn) | 0.297 | 2.82 µM
COC(=O)CNC(=O)C(=O)c1c(O)c(O)c(C(C)C)c2cc(C)c(-c3c(C)cc4c(C(C)C)c(O)c(O)c(C(=O)C(=O)NCC(=O)OC)c4c3O)c(O)c12 | 1.46 | 4.8 µM

Structure (SMILES) | GI50 [µM] | TGI
Cc1cc(NC(=O)NCCOc2ccc(N3C(N)=NC(N)=NC3(C)C)cc2Cl)ccc1S(=O)(=O)F | 1.46 | 27.6 µM
C[C@H]1C[C@@H](n2c(Nc3ccc(OC(F)(F)F)cc3)nc3cc(CCC(=O)O)ccc32)CC(C)(C)C1 | 15.7 | 38.6 µM
CN(C)S(=O)(=O)c1cccc(C(=O)Nc2nc(-c3ccc(F)c(F)c3)cs2)c1 | 3.79 | 97.5 µM
O=C(CCN1CCCC1)Nc1ccc2c(Nc3ccc(F)cc3)c3ccccc3nc2c1 | 1.26 | 2.8 µM
O=C1c2c(c3c4cc(F)ccc4oc3c3[nH]c4ccccc4c23)C(=O)N1O | 2.14 | 7.93 µM
O=C(CSSCC(=O)c1ccc(Cl)cc1)c1ccc(Cl)cc1 | 2.26 | 5.98 µM
O=C1/C(=C/c2ccc(F)cc2)COc2ccc(O)c(O)c21 | 2.28 | 5.6 µM
CNC(=O)c1c(NC(=O)c2ccccc2C(F)(F)F)sc2c1CCC(=O)C2 | 1.81 | 5.36 µM
Cc1cccc(CNc2c3ccccc3nc3ccccc23)c1 | 1.58 | 3.63 µM
CCCC(=O)Oc1ccc(/C(=C(\C)c2ccc(Cl)cc2)c2ccc(OCCN(CC)CC)cc2)cc1 | 1.53 | 3.67 µM
COc1ccc(/C=C\c2cc(OC)c(OC)c(OC)c2)cc1NC(=O)/C=C/c1ccc(OC)c(OC)c1 | 1.9 | > 100 µM
COc1cc2c(O[C@@H]3OC[C@H](OC(C)=O)[C@H](OC(C)=O)[C@H]3O)c3c(c(-c4ccc5c(c4)OCO5)c2cc1OC)C(=O)OC3 | 0.731 | > 10 µM
O=[N+]([O-])c1ccc(Sc2cccc[n+]2[O-])c2nonc12 | 5.78 | 20.7 µM
Nc1c(C(=O)c2cccc(-c3cccnc3)c2)cnn1-c1ccc(F)cc1 | > 25 | > 25 µM
Cc1ccc(S(=O)(=O)c2nc(-c3ccc(F)cc3)oc2S(C)(=O)=O)cc1 | 2.5 | > 19.8 µM
COc1ccc(-n2nc(C)c3c(Nc4ccc(NC(=O)Nc5cccc(C(F)(F)F)c5)cc4)ncnc32)cc1 | 2.02 | 4.9 µM
